Measured values reported in US10563272B2, “Compositions comprising Metarhizium fungi and use thereof as a pesticide” (Cotton Research and Development Corporation, priority 2015, dated 2020).

Legend:
green mirids = assay: Rate trial on conventional cotton, ACRI 2011-12 (Example 9): green mirids; assay type: in vivo, Creontiades dilutus
Experimental: This trial was conducted in an irrigated field of commercial conventional cotton at the Australian Cotton Research Institute (ACRI) farm in Narrabri, NSW, during the 2011-2012 season. The treatments in this trial were as follows: • 1. 250 mL/ha DAT 511; • 2. 500 mL/ha DAT 511; and • 3. 1 L/ha DAT 511.
Results were compared with data from unsprayed conventional cotton crops (negative control) and conventional cotton crops treated with 62.5 mL/ha of fipronil. The population of apple dimpling bugs at the study site was higher than GVB and green mirids, and remained so throughout the season. Therefore the trials were treated and assessed from 8 Jan. to 12 Feb. 2012 for green mirids, 26 Feb. 2012 for GVB and 4 Mar. 2012 for apple dimpling bugs. The treatment plots were arranged in a randomized complete block design with eight replicates per treatment. Each replicated plot measured 16 m (16 rows) wide and 250 m long.
Foliar applications of each treatment were made on 8 Jan. 22 Jan. and 5 Feb. 2012. The decision to apply the treatment was based on the IPM Guidelines and the CottonLogic recommended economic threshold of 0.5 green mirids per metre. Pre-treatment counts were made by visual counting of the numbers of green mirid, green vegetable bug and apple dimpling bug adults and nymphs, as well as predatory beetles, predatory bugs, predatory lacewings and spiders on cotton plants in each treatment. Post-treatment counts were made following the first spray at 7 and 14 DAT, following the second spray at 7 DAT for green mirids and GVB, and up to 28 DAT for the third spray for apple dimpling bugs. All counts were done on a randomly selected one-metre length of row of each treatment replicate (i.e. total of 8 m). Data were expressed as numbers per metre and numbers per metre per sampling date for each treatment.

predatory beetles = assay: Rate trial on conventional cotton, Norwood 2012 (Example 10): predatory beetles; assay type: in vivo, Coleoptera (Coccinellidae, Melyridae); conditions: 3 and 6 Mar. 2012; fipronil 62.5 mL/ha; P<0.05
Experimental: This trial was conducted on commercial conventional cotton crops on a farm at Norwood (29° 28'S, 149° 50′E) near Moree, NSW, from 28 Feb. to 21 Mar. 2012. The cotton used for the trial was at the early squaring stage, when it was attractive to green mirids (Khan et al. 2004).
(§1) The efficacy of the following treatments against green mirids and predatory insects were evaluated: • 1. 250 mL/ha DAT 511 spore in oil (1×10^7 spores/ml); • 2. 500 mL/ha DAT 511 spore in oil (1×10^7 spores/ml); • 3. 1 L/ha DAT 511 spore in oil (1×10^7 spores/ml); • 4. 62.5 mL/ha of Fipronil; and • 5. Unsprayed (negative control).
(§2) The treatment plots were arranged in a randomized complete block design with six replicates per treatment. Each replicated plot measured 40 m wide (40 rows) and 90 m long.
Foliar application of each treatment was made on 28 Feb. (for both green mirids and beneficial insects) and 13 Mar. […]
Pre-treatment counts of adult and nymph green mirids, predatory beetles, predatory bugs, predatory lacewings and spiders were made by visual inspection of whole cotton plants. Both adults and nymphs of beneficial insects were counted. Plants were assessed in randomly selected one-metre lengths of row of each treatment replicate (i.e. 6 m per treatment). […] Data are expressed as numbers of green mirid adults and nymphs counted per metre per treatment.

predatory lacewings = assay: Bollgard II cotton, Auscott-Togo 2012-13, Field 77 (Experiment 1): predatory lacewings; assay type: in vivo, Chrysopa spp., Micromus tasmaniae; conditions: 62.5 mL/ha
Experimental: Two separate trials (Experiment 1 in Field 77; Experiment 2 in Field 63) were conducted in Bollgard II cotton crops on a commercial cotton farm at Auscott-Togo near Narrabri, New South Wales from 11 Feb. to 5 Mar. 2013 (Field 77) and 19 Feb. to 6 Mar. 2013 (Field 63). The cotton used for each of the trials was at the late squaring to pod setting and maturation stages which was fairly attractive to green mirids.
as §1, with “In both trials, the” for “The”, “was” for “were”, “fipronil;” for “Fipronil;”
as §2
Foliar application of each treatment was made on 28 Feb. (for both green mirids and beneficial insects) and 13 Mar. 2012 (for beneficial insects alone) using a ground spray rig fitted with flat fan nozzles to achieve a droplet size of 200 μm. The treatment was applied during the mornings when temperatures were between 20° C. and 28° C. The timing of treatment was based on the IPM Guidelines and recommendations by CottonLogic to use an economic threshold of 0.5 green mirids per metre (Deutscher and Wilson 1999; Khan et al. 2004).
Pre-treatment counts of green mirid adults and nymphs, predatory beetles, predatory bugs, predatory lacewings and spiders were made by visual inspection of whole cotton plants. Both adults and nymphs of beneficial insects were counted. Plants were assessed in randomly selected one-metre lengths of row of each replicate (i.e. 6 m per treatment). Post-treatment counts were made 3, 7, 14 and 21 days after treatment. Data are expressed as numbers of green mirid adults and nymphs counted per metre for each treatment.

In the case of `N#Cc1nn(-c2c(Cl)cc(C(F)(F)F)cc2Cl)c(N)c1[S+]([O-])C(F)(F)F` (stereo not drawn) [fipronil], the “adult mirids found on treated plots” value (green mirids; at the second spray application) is reported as “no adult mirids were found”, the “adult and nymph green mirids versus unsprayed (control) plots” value (green mirids; different rates of DAT 511, fipronil 62.5 mL/ha, P<0.0001) is reported as “Significantly fewer” and the “mirid nymphs found on treated plots” value (green mirids; seven days after second spray, DAT 511 500 mL and 1.0 L/ha, fipronil) is reported as “no mirid nymphs were found”. For the same compound, the “number of predatory beetles per metre versus unsprayed and DAT 511 treated plots” value (predatory beetles) was “significantly lower”, the “No. predatory lacewings per meter” value (predatory lacewings; 3 DAT) was 0.00 ± 0.00 a per meter and the “No. predatory lacewings per meter” value (predatory lacewings; 7 DAT) was 0.00 ± 0.00 a per meter. For the same compound, the “No. predatory lacewings per meter” value (predatory lacewings; 14 DAT) was 0.33 ± 0.33 a per meter, the “No. predatory lacewings per meter” value (predatory lacewings; 21 DAT) was 0.33 ± 0.33 a per meter and the “No. predatory lacewings per meter” value (predatory lacewings; pre-spray counts) was 0.00 ± 0.00 a per meter.
